# pIC50: −log10 of the molar value. Structures can show the parent of a compound that is named as a salt.
# Molecular target: Bcl-2 (Homo sapiens (Human), UniProt P10415)
# Assay: Bcl-2 competition binding (fluorescence polarization) assay
# Conditions: fluorescein labeled BH3 peptide 15 nM, Bcl-2 protein 30 nM, 3 hours of incubation at room temperature
# Procedure: Biological Example 1: Bcl-2 Competition Binding (Fluorescence Polarization) Assay
# The fluorescence-labeled 23 amino acid peptide BH3 was purchased from CalBiochem ([…]). […] This binding assay was performed in 96-well plate and with each assay contained 15 and 30 nM of labeled peptide and purified Bcl-2 protein (purchased from R&D Systems, Inc). The assay buffer contained 20 mM Hepes (pH 7.0), 50 mM KCl, 5 mM MgCl2, 20 mM Na2MoO4, 0.1 mg/mi Bovine Gamma Globulin and 0.01% NP40. Compounds were diluted in DMS0 and added to the final assay with concentration range from 20 μM to 2 nM. The polarization degree (mP) value was determined by BioTek Synergy II with background subtraction after 3 hours of incubation at room temperature. IC50 was calculated using Prism software with sigmoidal dose-response curve fitting. ABT-737 was used as reference compound. Such assays, carried out with a range of doses of test compounds, allowed the determination of an approximate IC50 value.
# Chain of Bcl-2 (P10415 whole entry): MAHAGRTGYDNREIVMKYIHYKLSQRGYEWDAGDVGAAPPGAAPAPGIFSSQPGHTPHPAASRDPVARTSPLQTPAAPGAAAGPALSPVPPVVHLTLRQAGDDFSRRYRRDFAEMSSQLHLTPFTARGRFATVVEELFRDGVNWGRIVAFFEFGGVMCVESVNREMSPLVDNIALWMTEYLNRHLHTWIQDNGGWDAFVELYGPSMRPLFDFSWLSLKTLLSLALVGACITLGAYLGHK
row,SMILES,pIC50
1,"CC(C)Nc1ccccc1[C@@H]1CCCN1C1CC2(CCN(c3ccc(C(=O)NS(=O)(=O)c4ccc(NCC5CCOCC5)c([N+](=O)[O-])c4)c(N4c5cc6cc[nH]c6nc5O[C@@H]5COC[C@H]54)c3)CC2)C1 [Example 21, 2-[(11R,15S)-13,16-dioxa-2,4,10-triazatetracyclo[7.7.0.0^{3,7}.0^{11,15}]hexadeca-1(9),2,5,7-tetraen-10-yl]-4-{2-[(2S)-2-[2-(isopropylamino)phenyl]pyrrolidin-1-yl]-7-azaspiro[3.5]nonan-7-yl}-N-{3-nitro-4-[(oxan-4-ylmethyl)amino]benzenesulfonyl}benzamide hydrochloride]",9.62
2,"O=C(NS(=O)(=O)c1ccc(NCC2CCOCC2)c([N+](=O)[O-])c1)c1ccc(N2CCC3(CC2)CC(N2CCC[C@H]2c2ccccc2C2CCC2)C3)cc1N1c2cc3cc[nH]c3nc2O[C@@H]2COC[C@H]21 [Example 22, 4-{2-[(2S)-2-(2-cyclobutylphenyl)pyrrolidin-1-yl]-7-azaspiro[3.5]nonan-7-yl}-2-[(11R,15S)-13,16-dioxa-2,4,10-triazatetracyclo[7.7.0.0^{3,7}.0^{11,15}]hexadeca-1(9),2,5,7-tetraen-10-yl]-N-{3-nitro-4-[(oxan-4-ylmethyl)amino]benzenesulfonyl}benzamide]",10.00
3,"O=C(NS(=O)(=O)c1ccc(NCC2CCOCC2)c([N+](=O)[O-])c1)c1ccc(N2CCC3(CC2)CC(N2CCC[C@H]2c2ccccc2Cl)C3)cc1N1c2cc3cc[nH]c3nc2O[C@@H]2COC[C@H]21 [Example 23, 4-{2-[(2S)-2-(2-chlorophenyl)pyrrolidin-1-yl]-7-azaspiro[3.5]nonan-7-yl}-2-[(11R,15S)-13,16-dioxa-2,4,10-triazatetracyclo[7.7.0.0^{3,7}.0^{11,15}]hexadeca-1(9),2,5,7-tetraen-10-yl]-N-{3-nitro-4-[(oxan-4-ylmethyl)amino]benzenesulfonyl}benzamide hydrochloride]",9.23
4,"O=C(NS(=O)(=O)c1ccc(NCC2CCOCC2)c([N+](=O)[O-])c1)c1ccc(N2CCC3(CC2)CC(N2CCC[C@H]2c2ccccc2F)C3)cc1N1c2cc3cc[nH]c3nc2O[C@@H]2COC[C@H]21 [Example 24, 2-[(11R,15S)-13,16-dioxa-2,4,10-triazatetracyclo[7.7.0.0^{3,7}.0^{11,15}]hexadeca-1(9),2,5,7-tetraen-10-yl]-4-{2-[(2S)-2-(2-fluorophenyl)pyrrolidin-1-yl]-7-azaspiro[3.5]nonan-7-yl}-N-{3-nitro-4-[(oxan-4-ylmethyl)amino]benzenesulfonyl}benzamide hydrochloride]",9.38
5,"CS(=O)(=O)Nc1ccccc1[C@@H]1CCCN1C1CC2(CCN(c3ccc(C(=O)NS(=O)(=O)c4ccc(NCC5CCOCC5)c([N+](=O)[O-])c4)c(N4c5cc6cc[nH]c6nc5O[C@@H]5COC[C@H]54)c3)CC2)C1 [Example 25, 2-[(11R,15S)-13,16-dioxa-2,4,10-triazatetracyclo[7.7.0.0^{3,7}.0^{11,15}]hexadeca-1(9),2,5,7-tetraen-10-yl]-4-{2-[(2S)-2-(2-methanesulfonamidophenyl)pyrrolidin-1-yl]-7-azaspiro[3.5]nonan-7-yl}-N-{3-nitro-4-[(oxan-4-ylmethyl)amino]benzenesulfonyl}benzamide]",7.83
6,"N#Cc1ccccc1[C@@H]1CCCN1C1CC2(CCN(c3ccc(C(=O)NS(=O)(=O)c4ccc(NCC5CCOCC5)c([N+](=O)[O-])c4)c(N4c5cc6cc[nH]c6nc5O[C@@H]5COC[C@H]54)c3)CC2)C1 [Example 26, 4-{2-[(2S)-2-(2-cyanophenyl)pyrrolidin-1-yl]-7-azaspiro[3.5]nonan-7-yl}-2-[(11R,15S)-13,16-dioxa-2,4,10-triazatetracyclo[7.7.0.0^{3,7}.0^{11,15}]hexadeca-1(9),2,5,7-tetraen-10-yl]-N-{3-nitro-4-[(oxan-4-ylmethyl)amino]benzenesulfonyl}benzamide]",9.15
7,"O=C(NS(=O)(=O)c1ccc(NCC2CCOCC2)c([N+](=O)[O-])c1)c1ccc(N2CCC3(CC2)CC(N2CCC[C@H]2c2ccccc2NCC(F)(F)F)C3)cc1N1c2cc3cc[nH]c3nc2O[C@@H]2COC[C@H]21 [Example 27, 2-[(11R,15S)-13,16-dioxa-2,4,10-triazatetracyclo[7.7.0.0^{3,7}.0^{11,15}]hexadeca-1(9),2,5,7-tetraen-10-yl]-N-{3-nitro-4-[(oxan-4-ylmethyl)amino]benzenesulfonyl}-4-{2-[(2S)-2-{2-[(2,2,2-trifluoroethyl)amino]phenyl}pyrrolidin-1-yl]-7-azaspiro[3.5]nonan-7-yl}benzamide]",8.92
8,"CC(C)S(=O)(=O)c1ccccc1[C@@H]1CCCN1C1CC2(CCN(c3ccc(C(=O)NS(=O)(=O)c4ccc(NCC5CCOCC5)c([N+](=O)[O-])c4)c(N4c5cc6cc[nH]c6nc5O[C@@H]5COC[C@H]54)c3)CC2)C1 [Example 28, 2-[(11R,15S)-13,16-dioxa-2,4,10-triazatetracyclo[7.7.0.0^{3,7}.0^{11,15}]hexadeca-1(9),2,5,7-tetraen-10-yl]-N-{3-nitro-4-[(oxan-4-ylmethyl)amino]benzenesulfonyl}-4-{2-[(2S)-2-[2-(propane-2-sulfonyl)phenyl]pyrrolidin-1-yl]-7-azaspiro[3.5]nonan-7-yl}benzamide]",7.51
9,"CP(C)(=O)c1ccccc1[C@@H]1CCCN1C1CC2(CCN(c3ccc(C(=O)NS(=O)(=O)c4ccc(NCC5CCOCC5)c([N+](=O)[O-])c4)c(N4c5cc6cc[nH]c6nc5O[C@@H]5COC[C@H]54)c3)CC2)C1 [Example 29, 4-{2-[(2S)-2-[2-(dimethylphosphoryl)phenyl]pyrrolidin-1-yl]-7-azaspiro[3.5]nonan-7-yl}-2-[(11R,15S)-13,16-dioxa-2,4,10-triazatetracyclo[7.7.0.0^{3,7}.0^{11,15}]hexadeca-1(9),2,5,7-tetraen-10-yl]-N-{3-nitro-4-[(oxan-4-ylmethyl)amino]benzenesulfonyl}benzamide]",8.86
10,"NC(=O)c1ccccc1[C@@H]1CCCN1C1CC2(CCN(c3ccc(C(=O)NS(=O)(=O)c4ccc(NCC5CCOCC5)c([N+](=O)[O-])c4)c(N4c5cc6cc[nH]c6nc5O[C@@H]5COC[C@H]54)c3)CC2)C1 [Example 30, 4-{2-[(2S)-2-(2-carbamoylphenyl)pyrrolidin-1-yl]-7-azaspiro[3.5]nonan-7-yl}-2-[(11R,15S)-13,16-dioxa-2,4,10-triazatetracyclo[7.7.0.0^{3,7}.0^{11,15}]hexadeca-1(9),2,5,7-tetraen-10-yl]-N-{3-nitro-4-[(oxan-4-ylmethyl)amino]benzenesulfonyl}benzamide]",7.80
11,"CC1(C)C[C@@H](c2ccccc2[C@@H]2CCCN2C2CC3(CCN(c4ccc(C(=O)NS(=O)(=O)c5ccc(NCC6CCOCC6)c([N+](=O)[O-])c5)c(N5c6cc7cc[nH]c7nc6O[C@@H]6COC[C@H]65)c4)CC3)C2)CCO1 [Example 31, 4-{2-[(2S)-2-{2-[(4S)-2,2-dimethyloxan-4-yl]phenyl}pyrrolidin-1-yl]-7-azaspiro[3.5]nonan-7-yl}-2-[(11R,15S)-13,16-dioxa-2,4,10-triazatetracyclo[7.7.0.0^{3,7}.0^{11,15}]hexadeca-1(9),2,5,7-tetraen-10-yl]-N-{3-nitro-4-[(oxan-4-ylmethyl)amino]benzenesulfonyl}benzamide]",7.51
12,"CC1(C)C[C@H](c2ccccc2[C@@H]2CCCN2C2CC3(CCN(c4ccc(C(=O)NS(=O)(=O)c5ccc(NCC6CCOCC6)c([N+](=O)[O-])c5)c(N5c6cc7cc[nH]c7nc6O[C@@H]6COC[C@H]65)c4)CC3)C2)CCO1 [Example 32, 4-{2-[(2S)-2-{2-[(4R)-2,2-dimethyloxan-4-yl]phenyl}pyrrolidin-1-yl]-7-azaspiro[3.5]nonan-7-yl}-2-[(11R,15S)-13,16-dioxa-2,4,10-triazatetracyclo[7.7.0.0^{3,7}.0^{11,15}]hexadeca-1(9),2,5,7-tetraen-10-yl]-N-{3-nitro-4-[(oxan-4-ylmethyl)amino]benzenesulfonyl}benzamide]",7.80
13,"O=C(NS(=O)(=O)c1ccc(NCC2CCOCC2)c([N+](=O)[O-])c1)c1ccc(N2CCC3(CC2)CC(N2CCC[C@H]2c2cccc(Cl)c2)C3)cc1N1c2cc3cc[nH]c3nc2O[C@@H]2COC[C@H]21 [Example 33, 4-{2-[(2S)-2-(3-chlorophenyl)pyrrolidin-1-yl]-7-azaspiro[3.5]nonan-7-yl}-2-[(11R,15S)-13,16-dioxa-2,4,10-triazatetracyclo[7.7.0.0^{3,7}.0^{11,15}]hexadeca-1(9),2,5,7-tetraen-10-yl]-N-{3-nitro-4-[(oxan-4-ylmethyl)amino]benzenesulfonyl}benzamide]",8.85
14,"O=C(NS(=O)(=O)c1ccc(NCC2CCOCC2)c([N+](=O)[O-])c1)c1ccc(N2CCC3(CC2)CC(N2CCC[C@H]2c2ccc(Cl)cc2)C3)cc1N1c2cc3cc[nH]c3nc2O[C@@H]2COC[C@H]21 [Example 34, 4-{2-[(2S)-2-(4-chlorophenyl)pyrrolidin-1-yl]-7-azaspiro[3.5]nonan-7-yl}-2-[(11R,15S)-13,16-dioxa-2,4,10-triazatetracyclo[7.7.0.0^{3,7}.0^{11,15}]hexadeca-1(9),2,5,7-tetraen-10-yl]-N-{3-nitro-4-[(oxan-4-ylmethyl)amino]benzenesulfonyl}benzamide]",8.46
